The source of these data is PubChem BioAssay (NCI).

Holding throughout (assay): growth of human tumour cells (NCI), 48 h
The test system of assay [1] is U251 CNS.
For assay [2], the system named is SR leukemia.
The subject of assay [3] is MCF7 breast.
Assay [4] relates to SW-620 colon.
The subject of assay [5] is CAKI-1 renal.
Assay [6] has as its system OVCAR-3 ovarian.
The test system of assay [7] is SNB-19 CNS.
Assay [8] concerns OVCAR-5 ovarian.
Assay [9] deals with MDA-MB-435.
Assay [10] deals with TK-10 renal.
For assay [11], the system named is EKVX NSCLC.
Assay [12] concerns SF-539 CNS.
Assay [13] has as its system HT29 colon.
For assay [14], the system named is CCRF-CEM leukemia.
Assay [15] has as its system HOP-62 NSCLC.
The subject of assay [16] is SN12C renal.
Assay [17] deals with PC-3 prostate.
Assay [18] has as its system MDA-N.
Assay [19] has as its system K-562 leukemia.

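Dose response: 5 concentrations. Exposure: 48 h. Format: 96-well plates. Endpoint: linear interpolation; highest concentration if not reached. Definition used: TGI = concentration required for complete inhibition of growth.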

Regarding `CCCCCCCC1(N=[N+]=[N-])C(=O)c2ccccc2N(C)C1=O` (configuration not stated), the TGI in assay [1], in assay [2], in assay [3], in [4], in assay [5] and in assay [6] was over 100 µM in each case. Also, the TGI in assay [7], in assay [8], in assay [9], in assay [10], in assay [11] and in [12] was over 100 µM throughout. The TGI in assay [13], in [14], in assay [15], in assay [16] and in assay [17] was over 100 µM throughout.

Consider `C/C=C(C)/C=C/CC(C)CCC=C(C)C` (configuration not stated), for which the TGI in assay [1], in [2], in assay [3], in assay [18], in [4] and in [5] was over 100 µM in each case. The TGI in assay [6], in [7], in assay [19], in assay [8], in [9] and in assay [10] was over 100 µM each time. Besides, the TGI in assay [11], in assay [12], in [13], in assay [14] and in assay [16] was over 100 µM in each case.

With `CC1=NN(c2nc(N)nc(CCl)n2)CC1`, the TGI in assay [1] was over 100 µM; in assay [2], 61.7 µM; in assay [3] it was over 100 µM; in [4], 76.4 µM; in assay [5], 21.4 µM; in assay [6], 35.3 µM. Also, the TGI in assay [7] is over 100 µM; in assay [19] it was 32.7 µM; in [8], 57.4 µM; in assay [9], over 100 µM; in assay [10] it was over 100 µM; in assay [11], 35.8 µM. The TGI in assay [12] was 57.9 µM; in [13], over 100 µM; in [14], 43.3 µM; in assay [15], 29.4 µM; in [16], over 100 µM; in [17] it was over 100 µM.

Turning to `CC(=O)Oc1ccc2c(c1)Oc1cc(C(C)=O)ccc1C21OC(=O)c2ccccc21` (configuration not stated), the TGI in assay [1], in assay [3], in assay [18], in assay [4], in assay [5] and in assay [6] was over 100 µM throughout. Besides, the TGI in assay [7], in [19], in assay [8], in [9], in assay [10] and in assay [11] was over 100 µM each time. Besides, the TGI in [13], in [15], in assay [16] and in assay [17] was over 100 µM in each case.

As to `COc1cc(O)cc(/C=C/c2ccc(O)cc2)c1`, the TGI was 81.4 µM in assay [1]; over 100 µM in assay [2]; over 100 µM in assay [3]; over 100 µM in assay [4]; 78.2 µM in assay [5]; over 100 µM in [6]. The TGI in [7] is over 100 µM; in assay [19], 98.2 µM; in assay [8], over 100 µM; in assay [9] it was over 100 µM; in assay [10], 93.6 µM; in assay [11], 94.1 µM. Further, the TGI is over 100 µM in assay [12]; over 100 µM in [13]; over 100 µM in assay [15]; 77.8 µM in [16]; over 100 µM in assay [17].

Regarding `CSC1=C(C(=O)Nc2ccc(Cl)cc2)C(N)=NC1=O`, the TGI in [1], in assay [2], in [3], in assay [4], in assay [5] and in [6] was over 100 µM each time. The TGI in assay [7], in [19], in assay [8], in assay [9], in [10] and in assay [11] was over 100 µM each time. The TGI in assay [12], in assay [13], in assay [14], in assay [16] and in assay [17] was over 100 µM throughout.

As for `COc1cc(/C=C2\C[C@H]3[C@@H]4CC=C5C[C@@H](O)CC[C@]5(C)[C@H]4CC[C@]3(C)[C@H]2O)cc(OC)c1OC`, the TGI in assay [1] was 40.8 µM; in assay [3], over 100 µM; in assay [18] it was over 100 µM; in assay [4], over 100 µM; in [5], over 100 µM; in [6] it was 88 µM. Moreover, the TGI in assay [7] was over 100 µM; in [19] it was over 100 µM; in assay [8], 61.9 µM; in assay [9], 87.2 µM; in assay [10], over 100 µM; in assay [11] it was over 100 µM. Further, the TGI in assay [12] is over 100 µM; in assay [13], 27.6 µM; in assay [15], 41.3 µM; in assay [16] it was over 100 µM; in assay [17], 92.6 µM.

Consider `O=C1CCCCC/C1=C\c1ccc(F)cc1`, for which the TGI in assay [1], in assay [2], in assay [18], in assay [4], in assay [5] and in assay [6] was over 100 µM in each case. Further, the TGI in assay [7], in assay [19], in [8], in assay [9], in [10] and in [11] was over 100 µM each time. Also, the TGI was over 100 µM in [13]; 59.8 µM in assay [14]; over 100 µM in [15]; over 100 µM in [16]; over 100 µM in assay [17].

Turning to `CC(C)/C(Cl)=N\OC(=O)Nc1cccc(F)c1`, the TGI is 33.4 µM in assay [1]; 6.6 µM in assay [2]; 32.8 µM in [3]; 29.5 µM in [18]; 5.5 µM in assay [4]; 32.5 µM in assay [5]. Moreover, the TGI in assay [6] was 32.4 µM; in assay [7] it was over 100 µM; in assay [19], 4.8 µM; in assay [8], 35.1 µM; in assay [10] it was 28.1 µM; in [11] it was 31.8 µM. The TGI in [12] is 35.4 µM; in assay [13], 43.6 µM; in [14], 5.07 µM; in assay [15], over 31.6 µM; in assay [16], 32.2 µM; in assay [17], 30.2 µM.

As to `O=c1cc(-c2ccccc2)[nH]c2cc(F)c(F)cc12`, the TGI was over 58.6 µM in assay [1]; over 100 µM in [2]; over 71.9 µM in assay [3]; 1.17 µM in assay [18]; over 100 µM in assay [4]; over 100 µM in [5]. The TGI in [6] was 43.7 µM; in assay [7], over 50.6 µM; in [19] it was over 100 µM; in assay [8] it was over 100 µM; in assay [10], over 100 µM; in [11], over 100 µM. Besides, the TGI was 2.33 µM in assay [12]; over 46.4 µM in [13]; over 100 µM in [14]; over 100 µM in assay [15]; over 100 µM in [16]; over 100 µM in [17].

As to `CC(=N/NC(=S)N1CCCCC1)/C(=N\NC(=S)N1CCCCC1)c1ccccc1`, the TGI was 3.53 µM in assay [1]; over 22.7 µM in assay [3]; 7.64 µM in [18]; 4.22 µM in assay [5]; 3.34 µM in assay [6]; 3.64 µM in assay [7]. Further, the TGI in assay [19] is over 100 µM; in [8] it was 3.87 µM; in assay [9], 4.07 µM; in assay [10], 3.21 µM; in [11] it was 3.43 µM; in assay [12], 10.6 µM. For the same molecule, the TGI in [13] is 4.71 µM; in assay [15], 4.43 µM; in assay [16], 3.43 µM; in [17], 3.55 µM.

Consider `O=C1/C(=C/C=C/c2ccccc2)N=C(c2ccccc2)N1C1Nc2cc3c(cc2S1)NC(N1C(=O)/C(=C/C=C/c2ccccc2)N=C1c1ccccc1)S3` (configuration not stated), for which the TGI in [1] is over 100 µM; in assay [2], 27.8 µM; in [3], over 100 µM; in [4], over 100 µM; in assay [5] it was over 100 µM; in assay [6], over 100 µM. Besides, the TGI in assay [19], in [8], in assay [9], in assay [10], in assay [11] and in [12] was over 100 µM each time. For the same molecule, the TGI in assay [13], in assay [14], in assay [15] and in [17] was over 100 µM each time.

Consider `CCN(CC)CC(=O)Nc1c(C(N)=O)nnn1Cc1cc(Cl)c(C(=O)c2ccc(Cl)cc2)c(Cl)c1`, for which the TGI in [1] came out at 41.1 µM; in [2], 68.9 µM; in assay [3], 32.4 µM; in [4], 40.4 µM; in assay [5], 65.1 µM; in [6] it was 31.7 µM. Further, the TGI in [7] was over 100 µM; in assay [19], 37.4 µM; in assay [8], 40.7 µM; in [9], 37.2 µM; in assay [10], 57.4 µM; in assay [11] it was over 100 µM. Moreover, the TGI in assay [12] is 31.4 µM; in assay [13], 38.6 µM; in [14], 41.5 µM; in assay [15] it was 34.2 µM; in [16], 50.3 µM; in assay [17], 38.7 µM.

Regarding `C[C@H]1O[C@@H](c2c(O)ccc3ccccc23)C[C@@H](N(C)C)C1O` (some centres not stated), the TGI in [1], in [3], in assay [18], in assay [4], in assay [6] and in assay [7] was over 100 µM each time. Also, the TGI in assay [19], in assay [8], in assay [9], in assay [10], in [11] and in [12] was over 100 µM in each case. In addition, the TGI in assay [13], in [14], in assay [15], in [16] and in assay [17] was over 100 µM in each case.

In the case of `COc1ccc2cc(C(C)C(O)c3cc(F)c(F)c(F)c3F)ccc2c1` (configuration not stated), the TGI in assay [1], in assay [3], in [18], in assay [4], in assay [6] and in assay [7] was over 100 µM throughout. The TGI in assay [19], in assay [8], in assay [9], in [10], in assay [11] and in assay [13] was over 100 µM each time. For the same molecule, the TGI in assay [14], in assay [15], in [16] and in [17] was over 100 µM each time.

For the molecule `C=CCCCC1CCCNC1=O` (configuration not stated), the TGI in [1], in [3], in [18], in assay [4], in [5] and in assay [6] was over 100 µM each time. For the same molecule, the TGI in assay [7], in [19], in assay [8], in assay [9], in assay [10] and in [11] was over 100 µM in each case. The TGI in assay [12], in [13], in assay [15], in assay [16] and in assay [17] was over 100 µM in each case.
